Drawing on patent publication US8058290B2, “7-substituted aza-indazoles, compositions containing same, production method and use thereof” (Aventis Pharma S.A., priority 2005, dated 2011), this text covers IC50 for 25 compounds.

SMILES strings stand for the structures. Structures can show the parent of a compound that is named as a salt.

Holding throughout (format): biochemical
One experiment concerns the target T1, human Tie2 (Homo sapiens, UniProt Q02763).
T1 construct: corresponding to the intracellular domain amino acids 776-1124 was generated by PCR; made in house; host or cells: baculovirus expression (pFastBacGT)
In words: Tie2 PLC phosphorylation assay (GST-Tie2, FlashPlate). The conditions noted are these: GST-Tie2 intracellular domain, 2 μM cold ATP, 1 hour at 37° C.; read-out: IC 50 Tie2. As to the method: The human Tie2 coding sequence corresponding to the intracellular domain amino acids 776-1124 was generated by PCR using the cDNA isolated from human placenta as model. This sequence was introduced into a baculovirus expression vector pFastBacGT in the form of a GST fusion protein.
The inhibitory effect of the molecules is determined in an assay of PLC phosphorylation by Tie2 in the presence of GST-Tie2 purified to approximately 80% of homogeneity. The substrate is composed of the SH2-SH3 fragments of PLC expressed in the form of a GST fusion protein.
The kinase activity of Tie2 is measured in a 20 mM MOPS buffer, pH 7.2, containing 10 mM MgCl2, 10 mM MnCl2, 1 mM DTT and 10 mM of glycerophosphate. In a FlashPlate 96-well plate kept on ice, a reaction mixture composed of 70 μl of kinase buffer containing 100 ng of GST-Tie2 enzyme is deposited per well. 10 μl of the test molecule diluted, in DMSO, to a concentration of at most 10% are subsequently added. For a given concentration, each measurement is carried out in quadruplicate. The reaction is initiated by adding 20 μl of solution containing 2 μg of GST-PLC, 2 μM of cold ATP and 1 μCi of ^33P[ATP]. After incubation for 1 hour at 37° C., the reaction is stopped by adding 1 volume (100 μl) of EDTA at 200 mM. After removal of the incubation buffer, the wells are washed three times with 300 μl of PBS. The radioactivity is measured on a Wallac MicroBeta1450.
The inhibition of the Tie2 activity is calculated and expressed as percentage inhibition relative to the control activity determined in the absence of compound.

The next experiment has as its target T2, human KDR enzyme (Homo sapiens, UniProt P35968).
T2 construct: The cytoplasmic domain of the human KDR enzyme was cloned in the form of a GST fusion; GST; made in house; host or cells: SF21 insect cells (baculovirus, pFastBac)
In words: KDR substrate phosphorylation assay (scintillation, 96-well plate). The conditions noted are these: cytoplasmic domain of human KDR as GST fusion, 2 μM cold ATP, 1 hour at 37° C. As to the method: 2. KDR The inhibitory effect of the compounds is determined in an assay of substrate phosphorylation by the KDR enzyme in vitro using a scintillation technique (96-well plate, NEN). The cytoplasmic domain of the human KDR enzyme was cloned in the form of a GST fusion into the baculovirus expression vector pFastBac. The protein was expressed in SF21 cells and purified to approximately 60% homogeneity. The kinase activity of KDR is measured in 20 mM MOPS, 10 mM MgCl2, 10 mM MnCl2, 1 mM DTT, 2.5 mM EGTA and 10 mM b-glycerophosphate, pH=7.2, in the presence of 10 mM MgCl2, 100 μM Na3VO4 and 1 mM NaF. 10 μl of the compound are added to 70 μl of kinase buffer containing 100 ng of KDR enzyme at 4° C. The reaction is initiated by adding 20 μl of solution containing 2 μg of substrate (SH2-SH3 fragment of PLCγ expressed in the form of a GST fusion protein), 2 μCi γ^33P[ATP] and 2 μM cold ATP. After incubation for 1 hour at 37° C., the reaction is stopped by adding 1 volume (100 μl) of 200 mM EDTA. The incubation buffer is removed, and the wells are washed three times with 300 μl of PBS. The radioactivity is measured in each well using a Top Count NXT radioactivity counter (Packard). The background noise is determined by measuring the radioactivity in four different wells containing radioactive ATP and the substrate alone. A total activity control is measured in four different wells containing all the reactants (γ^33P-[ATP], KDR and PLCγ substrate) but in the absence of compound. The inhibition of the KDR activity with the compound of the invention is expressed as percentage inhibition of the control activity determined in the absence of compound. The compound SU5614 (Calbiochem) (1 μM) is included in each plate as an inhibition control.

The next experiment concerns the target T3, human FAK (Homo sapiens, UniProt Q05397).
T3 construct: The complete cDNA of human FAK, the N-terminal end of which had been labelled with histidine; made in house; host or cells: baculovirus expression (pFastBac HTc)
In words: FAK autophosphorylation time resolved fluorescence assay (HTRF). The conditions noted are these: 15 μM ATP, 1 hour at 37° C. Here is the method: Determination of the Activity of the Compounds—Experimental Protocols 1. FAK
The inhibitory activity of the compounds on FAK is determined by measuring the inhibition of autophosphorylation of the enzyme using a time resolved fluorescence assay (HTRF).
The complete cDNA of human FAK, the N-terminal end of which had been labelled with histidine, was cloned into a baculovirus expression vector pFastBac HTc. The protein was expressed and purified to approximately 70% homogeneity.
The kinase activity is determined by incubating the enzyme (6.6 μg/ml) with various concentrations of test compound in a 50 mM Hepes buffer, pH=7.2, containing 10 mM MgCl2, 100 μM Na3VO4, and 15 μM of ATP for 1 hour at 37° C. […] The XL-665-specific long-lasting signal is measured in a Packard Discovery plate counter. All the assays were carried out in duplicate and the mean of the two assays is calculated. The inhibition of the FAK autophosphorylation activity with compounds of the invention is expressed as percentage inhibition relative to a control, the activity of which is measured in the absence of test compound. […]

T2 sequence (P35968 786-1356 limits assumed): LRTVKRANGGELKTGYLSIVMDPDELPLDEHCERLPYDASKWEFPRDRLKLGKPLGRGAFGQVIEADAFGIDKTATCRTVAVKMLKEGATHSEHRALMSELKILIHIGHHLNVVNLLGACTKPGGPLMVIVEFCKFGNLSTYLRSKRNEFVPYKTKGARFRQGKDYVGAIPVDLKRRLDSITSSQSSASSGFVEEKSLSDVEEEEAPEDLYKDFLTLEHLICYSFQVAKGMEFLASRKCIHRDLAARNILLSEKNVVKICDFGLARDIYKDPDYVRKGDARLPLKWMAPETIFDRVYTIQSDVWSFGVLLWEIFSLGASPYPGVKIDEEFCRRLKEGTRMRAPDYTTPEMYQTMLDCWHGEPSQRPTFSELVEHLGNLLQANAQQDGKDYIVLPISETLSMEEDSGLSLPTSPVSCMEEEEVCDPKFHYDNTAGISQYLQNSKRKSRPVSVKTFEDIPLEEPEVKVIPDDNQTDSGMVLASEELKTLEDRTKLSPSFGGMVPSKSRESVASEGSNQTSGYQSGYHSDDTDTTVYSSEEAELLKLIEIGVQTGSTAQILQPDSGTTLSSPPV
T1 sequence (Q02763 776-1124): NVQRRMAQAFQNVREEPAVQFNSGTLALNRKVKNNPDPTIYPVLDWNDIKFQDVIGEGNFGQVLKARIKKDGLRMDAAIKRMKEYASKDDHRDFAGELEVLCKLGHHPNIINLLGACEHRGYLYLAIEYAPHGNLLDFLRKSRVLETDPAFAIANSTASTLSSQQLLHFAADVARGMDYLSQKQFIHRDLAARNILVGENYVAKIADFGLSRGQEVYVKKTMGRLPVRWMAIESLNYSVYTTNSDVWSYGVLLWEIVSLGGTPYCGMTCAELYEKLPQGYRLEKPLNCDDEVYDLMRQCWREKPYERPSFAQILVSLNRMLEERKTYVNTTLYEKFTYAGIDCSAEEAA
T3 sequence (Q05397 whole entry): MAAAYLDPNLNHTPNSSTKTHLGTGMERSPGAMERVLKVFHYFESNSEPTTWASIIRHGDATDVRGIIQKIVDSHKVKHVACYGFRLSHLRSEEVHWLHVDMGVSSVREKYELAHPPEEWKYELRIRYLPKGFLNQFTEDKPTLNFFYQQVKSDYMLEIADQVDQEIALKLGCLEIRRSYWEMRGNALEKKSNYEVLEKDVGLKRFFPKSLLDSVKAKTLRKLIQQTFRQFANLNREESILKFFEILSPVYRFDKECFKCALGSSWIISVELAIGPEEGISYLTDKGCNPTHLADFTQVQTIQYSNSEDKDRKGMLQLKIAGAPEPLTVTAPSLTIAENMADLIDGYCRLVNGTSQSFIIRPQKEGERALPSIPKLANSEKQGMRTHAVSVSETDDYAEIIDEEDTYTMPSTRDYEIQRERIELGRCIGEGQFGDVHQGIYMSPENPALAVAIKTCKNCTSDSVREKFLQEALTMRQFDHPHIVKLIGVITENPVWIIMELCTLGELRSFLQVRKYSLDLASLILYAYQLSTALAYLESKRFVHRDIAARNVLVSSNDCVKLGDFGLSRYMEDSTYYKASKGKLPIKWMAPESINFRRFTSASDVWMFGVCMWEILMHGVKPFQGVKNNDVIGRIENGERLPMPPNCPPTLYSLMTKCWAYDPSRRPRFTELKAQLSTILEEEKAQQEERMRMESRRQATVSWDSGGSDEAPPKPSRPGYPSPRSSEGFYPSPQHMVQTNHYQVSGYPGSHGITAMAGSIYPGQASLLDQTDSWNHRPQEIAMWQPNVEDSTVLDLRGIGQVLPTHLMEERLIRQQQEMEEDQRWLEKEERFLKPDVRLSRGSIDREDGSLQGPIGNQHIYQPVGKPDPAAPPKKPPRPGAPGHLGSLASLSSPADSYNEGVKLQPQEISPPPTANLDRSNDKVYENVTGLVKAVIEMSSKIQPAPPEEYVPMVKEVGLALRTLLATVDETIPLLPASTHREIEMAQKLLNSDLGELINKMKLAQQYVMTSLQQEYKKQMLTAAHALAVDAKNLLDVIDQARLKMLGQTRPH

With `CNC(=O)c1cc(-c2ccc(NS(=O)(=O)c3cccc(Cl)c3Cl)cc2)nc2[nH]ncc12` [Example 5], on human Tie2, the IC50 turned out to be 13 nM.
On the same count and under the same terms, as for `O=C(Nc1ccc(-c2cc(C(=O)NCCN3CCOCC3)c3cn[nH]c3n2)cn1)Nc1cc(C(F)(F)F)ccc1F` [Example 21], the figure is 6030 nM.
With `O=C(Nc1ncc(-c2cc(C(=O)NCCc3cnc[nH]3)c3cn[nH]c3n2)s1)Nc1cc(C(F)(F)F)ccc1F` [Example 14], the IC50 amounted to 7 nM at human Tie2 and 293 nM on human KDR enzyme.
For `O=C(Nc1ccc(-c2ccc3c(NC(=O)c4ccsc4)n[nH]c3n2)cc1)Nc1cc(C(F)(F)F)ccc1F` [Example 2, Thiophene-3-carboxylic acid (6-{4-[3-(2-fluoro-5-trifluoromethylphenyl)ureido]phenyl}-1H-pyrazolo[3,4-b]pyridin-3-yl)amide], the IC50 was determined as 7 nM at human Tie2 and 6 nM on human KDR enzyme.
For the compound `O=C(Nc1ncc(-c2cc(C(=O)NCCCN3CCOCC3)c3cn[nH]c3n2)s1)Nc1cc(C(F)(F)F)ccc1F` [Example 22], the IC50 at human Tie2 was determined as 4 nM; on human KDR enzyme it was 511 nM.
Turning to `O=C(Nc1ccccc1)Nc1ncc(-c2cc(C(=O)NCCN3CCOCC3)c3cn[nH]c3n2)s1` [Example 9], the IC50 at human Tie2 came to 443 nM; against human KDR enzyme, 6820 nM.
On to `O=C(Nc1ncc(-c2cc(C(=O)NCCC3CCNCC3)c3cn[nH]c3n2)s1)Nc1cc(C(F)(F)F)ccc1F` [Example 24], for which the IC50 on human Tie2 was determined as 2 nM; against human KDR enzyme, 133 nM.
The corresponding values for `O=C(Nc1ncc(-c2cc(C(=O)NCCN3CCNCC3)c3cn[nH]c3n2)s1)Nc1cc(C(F)(F)F)ccc1F` [Example 23] are 6 nM and 527 nM.
Turning to `CNC(=O)c1cc(-c2ccc(NC(=O)Nc3cc(C(F)(F)F)ccc3F)nc2)nc2[nH]ncc12` [Example 20], the IC50 on human Tie2 was 777 nM.
On to `O=C(Nc1ncc(-c2cc(C(=O)NCCN3CCOCC3)c3cn[nH]c3n2)s1)Nc1cc(C(F)(F)F)ccc1F` [Example 4, 6-{2-[3-(2-Fluoro-5-trifluoromethylphenyl)ureido]thiazol-5-yl}-1H-pyrazolo[3,4-b]pyridine-4-carboxylic acid (2-morpholin-4-ylethyl)amide trifluoroacetate], for which the IC50 was 343 nM against human FAK, 1 nM at human Tie2 and 83 nM on human KDR enzyme.
`O=C(Nc1cccc(-c2cc(C(=O)NCCN3CCOCC3)c3cn[nH]c3n2)c1)Nc1cc(C(F)(F)F)ccc1F` [Example 34]: the IC50 at human Tie2 was 4140 nM.
Consider `O=C(Nc1ncc(-c2cc(C(=O)NCCO)c3cn[nH]c3n2)s1)Nc1cc(C(F)(F)F)ccc1F` [Example 26], for which the values for the IC50 on human Tie2 and against human KDR enzyme were 3 nM and 387 nM, respectively.
The corresponding values for `CN1CCN(C(=O)c2cc(-c3cnc(NC(=O)Nc4cc(C(F)(F)F)ccc4F)s3)nc3[nH]ncc23)CC1` [Example 17] are 1 nM and 46 nM.
On to `CNC(=O)c1cc(-c2cnc(NC(=O)Nc3cc(C(F)(F)F)ccc3F)s2)nc2[nH]ncc12` [Example 11], for which the results for the IC50 on human FAK, at human Tie2 and at human KDR enzyme were 927 nM, 8 nM and 581 nM, respectively.
With `O=C(Nc1ncc(-c2cc(C(=O)NCc3ccncc3)c3cn[nH]c3n2)s1)Nc1cc(C(F)(F)F)ccc1F` [Example 28], the IC50 at human Tie2 was 105 nM; against human KDR enzyme, 4660 nM.
As for `O=C(Nc1ncc(-c2cc(C(=O)NCc3ccccn3)c3cn[nH]c3n2)s1)Nc1cc(C(F)(F)F)ccc1F` [Example 29], the results for the IC50 at human Tie2 and at human KDR enzyme were 3 nM and 160 nM, respectively.
As to `Nc1n[nH]c2nc(-c3ccc(NC(=O)Nc4cc(C(F)(F)F)ccc4F)cc3)ccc12` [Example 1, 1-[4-(3-Amino-1H-pyrazolo[3,4-b]pyridin-6-yl)phenyl]-3-(2-fluoro-5-trifluoromethylphenyl)urea], the IC50 at human Tie2 was 192 nM; against human KDR enzyme, 119 nM.
For `O=C(Nc1ncc(-c2cc(C(=O)N3CCNCC3)c3cn[nH]c3n2)s1)Nc1cc(C(F)(F)F)ccc1F` [Example 16], the IC50 on human Tie2 was determined as 7 nM; against human KDR enzyme, 200 nM.
With `CNC(=O)c1cc(-c2cccc(NC(=O)Nc3cc(C(F)(F)F)ccc3F)c2)nc2[nH]ncc12` [Example 33], the IC50 at human Tie2 was found to be 2700 nM.
The same measure, in the same setting: to `Nc1n[nH]c2nc(-c3ccc(NS(=O)(=O)c4cccc(Cl)c4Cl)cc3)ccc12` [Example 3, N-[4-(3-Amino-1H-pyrazolo[3,4-b]pyridin-6-yl)phenyl]-2,3-dichlorobenzenesulphonamide] belongs 75 nM.
Take `O=C(Nc1ncc(-c2cc(C(=O)N3CCOCC3)c3cn[nH]c3n2)s1)Nc1cc(C(F)(F)F)ccc1F` [Example 15]: the values for the IC50 on human Tie2 and at human KDR enzyme were 2 nM and 70 nM, respectively.
For `CN(C)CC(C)(C)CNC(=O)c1cc(-c2cnc(NC(=O)Nc3cc(C(F)(F)F)ccc3F)s2)nc2[nH]ncc12` [Example 13] the same measures were 4 nM and 373 nM.
The corresponding values for `CN(C)CCNC(=O)c1cc(-c2cnc(NC(=O)Nc3cc(C(F)(F)F)ccc3F)s2)nc2[nH]ncc12` [Example 12] are 30 nM and 2360 nM.
Turning to `O=C(Nc1ccc(C(F)(F)F)cc1)Nc1ncc(-c2cc(C(=O)NCCN3CCOCC3)c3cn[nH]c3n2)s1` [Example 55], the IC50 was found to be 88 nM at human Tie2 and 3540 nM against human KDR enzyme.
With `O=C(Nc1ncc(-c2cc(C(=O)NCCCN3CCCC3CO)c3cn[nH]c3n2)s1)Nc1cc(C(F)(F)F)ccc1F` (stereo not shown) [Example 31], the IC50 was 9 nM at human Tie2 and 647 nM at human KDR enzyme.
